# Measurements reported in US11787802B2, “Dihydrobenzimidazolones for medical treatment” (C4 Therapeutics, Inc., priority 2017, dated 2023).
# Molecular target: hCereblon(M1-L442)_hDDB1(M1-H1140) (Homo sapiens (Human), UniProt Q96SW2)
# Assay: Fluorescence direct binding protocol (tryptophan fluorescence titration)
# Settings: fluorescence titration at 20° C., excited at 280 nm, recorded at 340 nm; protein 5.0 E−8 M; assay buffer 50 mM Hepes 7.4 200 mM NaCl; read-out: Fluorescence h-Cereblon_DDB1 Mean Kd_EQ
# Description: Fluorescence Direct Binding Protocol
# Determination of the affinities of compounds to protein containing one or more tryptophan is measurable by monitoring the fluorescence emission in direct mode. The measurements depending on the protein available amounts are performed either manually in a cuvette on ISS-PC1 photon counting spectrofluorometer or automatically in well plates on a fluorescence plate reader device. Fluorescence titrations are performed at 20° C. in the chosen binding assay buffer by using a defined constant protein concentration against ligand concentration variations. Small aliquots of known ligand concentration solubilized in DMSO were added and the fluorescence, excited at 280 nm, was recorded at 340 nm. The fluorescence intensity was corrected for protein dilution and for the filter effect (Birdsall et al.^69). The corrected fluorescence intensity was plotted against the ligand concentration and fitted using a four-parameter sigmoidal function, from which the equilibrium dissociation constant Kd was computed using the law of mass action assuming a 1:1 protein-ligand complex (Eftink, 1997^70).
# Process • 1) Optimization of measurement parameters to minimize protein consumption and to minimize the dilution effect and the DMSO content • 2) Titration measurements of the protein against ligand by at least 12 titration steps to obtain a good s-curve fit • 3) Repeat the same titration measurements with the ligand alone to enable correction • 4) Check the stability of the protein once by titration against DMSO alone • 5) Determination of the molar extinction coefficients of the ligand at 280 and 340 nm with help of an UV-spectrophotometer • 6) Use Excel template for the correction of the measured raw data • 7) Use GraphPad Prism software for the quadratic binding fit and the KD evaluation.
# hCereblon(M1-L442)_hDDB1(M1-H1140), sequence (Q96SW2 whole entry): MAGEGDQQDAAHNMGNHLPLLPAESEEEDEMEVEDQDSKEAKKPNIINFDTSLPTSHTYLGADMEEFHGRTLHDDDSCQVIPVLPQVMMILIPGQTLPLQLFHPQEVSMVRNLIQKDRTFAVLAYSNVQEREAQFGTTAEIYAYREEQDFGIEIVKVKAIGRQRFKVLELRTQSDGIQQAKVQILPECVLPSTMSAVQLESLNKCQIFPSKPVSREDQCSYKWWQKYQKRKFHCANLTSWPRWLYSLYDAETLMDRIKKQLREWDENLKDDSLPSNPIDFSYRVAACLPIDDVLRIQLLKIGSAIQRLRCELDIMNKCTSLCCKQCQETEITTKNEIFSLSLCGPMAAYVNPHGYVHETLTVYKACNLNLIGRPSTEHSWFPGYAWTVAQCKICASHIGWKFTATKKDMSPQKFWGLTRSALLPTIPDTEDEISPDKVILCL
# hCereblon(M1-L442)_hDDB1(M1-H1140), sequence (Q16531 whole entry partner): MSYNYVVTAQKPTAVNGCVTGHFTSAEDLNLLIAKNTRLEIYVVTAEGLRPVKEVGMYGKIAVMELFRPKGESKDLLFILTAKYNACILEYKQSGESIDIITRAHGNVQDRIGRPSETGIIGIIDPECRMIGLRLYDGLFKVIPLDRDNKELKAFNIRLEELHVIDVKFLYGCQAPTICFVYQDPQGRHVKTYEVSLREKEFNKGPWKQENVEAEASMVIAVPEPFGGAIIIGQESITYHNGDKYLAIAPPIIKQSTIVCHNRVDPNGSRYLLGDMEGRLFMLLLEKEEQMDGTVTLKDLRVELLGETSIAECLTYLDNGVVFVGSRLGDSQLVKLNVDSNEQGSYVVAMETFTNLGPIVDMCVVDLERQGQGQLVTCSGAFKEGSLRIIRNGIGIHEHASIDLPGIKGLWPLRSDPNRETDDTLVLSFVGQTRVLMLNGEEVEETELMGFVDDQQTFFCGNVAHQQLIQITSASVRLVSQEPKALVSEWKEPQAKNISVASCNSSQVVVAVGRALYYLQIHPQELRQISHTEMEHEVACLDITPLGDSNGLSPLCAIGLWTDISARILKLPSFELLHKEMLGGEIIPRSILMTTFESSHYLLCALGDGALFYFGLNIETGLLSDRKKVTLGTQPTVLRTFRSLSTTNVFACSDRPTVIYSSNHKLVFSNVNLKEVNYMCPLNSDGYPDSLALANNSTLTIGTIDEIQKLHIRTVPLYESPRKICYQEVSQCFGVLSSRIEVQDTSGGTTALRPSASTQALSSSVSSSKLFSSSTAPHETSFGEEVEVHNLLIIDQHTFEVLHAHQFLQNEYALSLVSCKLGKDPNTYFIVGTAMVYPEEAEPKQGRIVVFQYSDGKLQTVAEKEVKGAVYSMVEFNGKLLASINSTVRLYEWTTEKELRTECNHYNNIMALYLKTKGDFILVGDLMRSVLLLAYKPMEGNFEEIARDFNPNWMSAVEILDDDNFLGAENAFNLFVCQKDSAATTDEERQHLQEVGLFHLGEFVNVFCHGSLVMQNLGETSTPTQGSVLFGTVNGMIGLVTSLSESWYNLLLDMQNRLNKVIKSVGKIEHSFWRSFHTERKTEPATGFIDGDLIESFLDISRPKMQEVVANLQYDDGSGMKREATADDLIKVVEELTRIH
row,SMILES,Kd
1,"CC(=O)NCCc1nc2ccccc2n1-c1ccc2[nH]c(=O)[nH]c2c1 [Example 80, N-[2-[1-(2-Oxo-1,3-dihydrobenzimidazol-5-yl)benzimidazol-2-yl]ethyl]acetamide]",15 nM
2,"O=C(Nc1ccc(Nc2ccccc2)cc1)Nc1ccc2[nH]c(=O)[nH]c2c1 [Example 87, 1-(2-Oxo-2,3-dihydro-1H-benzo[d]imidazol-5-yl)-3-(4-(phenylamino)phenyl)urea]",27 nM
3,"O=C(Nc1ccccc1)Nc1ccc2[nH]c(=O)[nH]c2c1 [Example 88, 1-(2-Oxo-2,3-dihydro-1H-benzo[d]imidazol-5-yl)-3-phenylurea]",17 nM
4,"COC(=O)c1cccc2c1CCN2C(=O)Nc1ccc2[nH]c(=O)[nH]c2c1 [Example 89, Methyl 1-((2-oxo-2,3-dihydro-1H-benzo[d]imidazol-5-yl)carbamoyl)indoline-4-carboxylate]",25 nM
5,"CC(=O)NCCC(=O)Nc1ccc2[nH]c(=O)[nH]c2c1 [Example 90, 3-Acetamido-N-(2-oxo-2,3-dihydro-1H-benzo[d]imidazol-5-yl)propanamide]",19 nM
6,"COC(=O)c1ccc2c(c1)CCN2C(=O)Nc1ccc2[nH]c(=O)[nH]c2c1 [Example 92, Methyl 1-((2-oxo-2,3-dihydro-1H-benzo[d]imidazol-5-yl)carbamoyl)indoline-5-carboxylate]",33 nM
7,"CNC(=O)c1cccc2c1CCN2C(=O)Nc1ccc2[nH]c(=O)[nH]c2c1 [Example 93, N4-Methyl-N1-(2-oxo-2,3-dihydro-1H-benzo[d]imidazol-5-yl)indoline-1,4-dicarboxamide]",10 nM
8,"O=C(c1cnc2[nH]c(=O)[nH]c2c1)N1CCCc2ccccc21 [Example 95, 6-(1,2,3,4-Tetrahydroquinoline-1-carbonyl)-1,3-dihydro-2H-imidazo[4,5-b]pyridin-2-one]",20 nM
9,"O=C(c1ccc2[nH]c(=O)[nH]c2c1)N1CCCc2ccccc21 [Example 97, 5-(1,2,3,4-Tetrahydroquinoline-1-carbonyl)-1,3-dihydro-2H-benzo[d]imidazol-2-one]",9 nM
10,"COC(=O)c1cccc2c1CCCN2C(=O)Nc1ccc2[nH]c(=O)[nH]c2c1 [Example 98, Methyl 1-((2-oxo-2,3-dihydro-1H-benzo[d]imidazol-5-yl)carbamoyl)-1,2,3,4-tetrahydroquinoline-5-carboxylate]",86 nM
11,"NS(=O)(=O)c1ccc(CC(=O)Nc2ccc3[nH]c(=O)[nH]c3c2)cc1 [Example 99, N-(2-Oxo-2,3-dihydro-1H-benzo[d]imidazol-5-yl)-2-(4-sulfamoylphenyl)acetamide]",46 nM
12,"NS(=O)(=O)c1ccc(C(=O)Nc2ccc3[nH]c(=O)[nH]c3c2)cc1 [Example 100, N-(2-Oxo-2,3-dihydro-1H-benzo[d]imidazol-5-yl)-4-sulfamoylbenzamide]",29 nM
13,"CC(=O)Nc1ccc(NC(=O)Nc2ccc3[nH]c(=O)[nH]c3c2)cc1 [Example 101, N-(4-(3-(2-oxo-2,3-dihydro-1H-benzo[d]imidazol-5-yl)ureido)phenyl)acetamide]",14 nM
14,"CNC(=O)c1nc2ccccc2n1-c1ccc2[nH]c(=O)[nH]c2c1 [Example 102, N-Methyl-1-(2-oxo-1,3-dihydrobenzimidazol-5-yl)benzimidazole-2-carboxamide]",130 nM
15,"O=C(c1nc2ccccc2n1-c1ccc2[nH]c(=O)[nH]c2c1)N1CCCCC1 [Example 103, 5-[2-(Piperidine-1-carbonyl)benzimidazol-1-yl]-1,3-dihydrobenzimidazol-2-one]",35 nM
16,"O=c1[nH]c2cc(-c3ccccc3OCc3ccccc3)cnc2[nH]1 [Example 104, 6-(2-(Benzyloxy)phenyl)-1,3-dihydro-2H-imidazo[4,5-b]pyridin-2-one]",14 nM
17,"COC(=O)c1ccc2c(c1)nc(-c1cc(-c3cncn3C)nc3ccccc13)n2-c1ccc2[nH]c(=O)[nH]c2c1 [Example 107, Methyl 2-(2-(1-methyl-1H-imidazol-5-yl)quinolin-4-yl)-2′-oxo-2′,3′-dihydro-1′H-[1,5′-bibenzo[d]imidazole]-5-carboxylate]",831 nM
18,"CNC(=O)c1ccc2c(c1)nc(-c1ccnc(OC)c1)n2-c1ccc2[nH]c(=O)[nH]c2c1 [Example 108, 2-(2-Methoxypyridin-4-yl)-N-methyl-2′-oxo-2′,3′-dihydro-1′H-[1,5′-bibenzo[d]imidazole]-5-carboxamide]",107 nM
19,"CNC(=O)c1cccc2c1CCCN2C(=O)Nc1ccc2[nH]c(=O)[nH]c2c1 [Example 109, N5-Methyl-N1-(2-oxo-2,3-dihydro-1H-benzo[d]imidazol-5-yl)-3,4-dihydroquinoline-1,5(2H)-dicarboxamide]",39 nM

# Now from value to molecule:
row,Kd,SMILES
1,4 nM,"CNC(=O)c1ccc2c(c1)nc(C(C)C)n2-c1cnc2[nH]c(=O)[nH]c2c1 [Example 79, 2-Isopropyl-N-methyl-1-(2-oxo-1,3-dihydroimidazo[4,5-b]pyridin-6-yl)benzimidazole-5-carboxamide]"
2,4 nM,"CNC(=O)CCc1nc2ccccc2n1-c1ccc2[nH]c(=O)[nH]c2c1 [Example 81, N-Methyl-3-[1-(2-oxo-1,3-dihydrobenzimidazol-5-yl)benzimidazol-2-yl]propanamide]"
3,3 nM,"COC(=O)c1nc2ccccc2n1-c1ccc2[nH]c(=O)[nH]c2c1 [Example 82, Methyl 1-(2-oxo-1,3-dihydrobenzimidazol-5-yl)benzimidazole-2-carboxylate]"
4,3 nM,"O=c1[nH]c2ccc(-n3cnc4ccccc43)cc2[nH]1 [Example 83, 5-(Benzimidazol-1-yl)-1,3-dihydrobenzimidazol-2-one]"
5,3 nM,"CC(O)c1nc2ccccc2n1-c1ccc2[nH]c(=O)[nH]c2c1 (stereo not shown) [Example 84, 5-[2-(1-Hydroxyethyl)benzimidazol-1-yl]-1,3-dihydrobenzimidazol-2-one]"
6,3 nM,"O=c1[nH]c2ccc(-n3c(C(O)c4ccccc4)nc4ccccc43)cc2[nH]1 (stereo not shown) [Example 85, 5-[2-[Hydroxy(phenyl)methyl]benzimidazol-1-yl]-1,3-dihydrobenzimidazol-2-one]"
7,4 nM,"CC(=O)N1CCC(N(C)C(=O)c2ccc3[nH]c(=O)[nH]c3c2)CC1 [Example 86, N-(1-Acetylpiperidin-4-yl)-N-methyl-2-oxo-2,3-dihydro-1H-benzo[d]imidazole-5-carboxamide]"
8,5 nM,"CC(=O)N1CCC(C(=O)Nc2ccc3[nH]c(=O)[nH]c3c2)CC1 [Example 91, 1-Acetyl-N-(2-oxo-2,3-dihydro-1H-benzo[d]imidazol-5-yl)piperidine-4-carboxamide]"
9,< 1 nM,"O=C(NCc1ccccc1)Nc1ccc2[nH]c(=O)[nH]c2c1 [Example 94, 1-Benzyl-3-(2-oxo-2,3-dihydro-1H-benzo[d]imidazol-5-yl)urea]"
10,9 nM,"CN(C(=O)c1ccc2[nH]c(=O)[nH]c2c1)c1ccccc1 [Example 96, N-Methyl-2-oxo-N-phenyl-2,3-dihydro-1H-benzo[d]imidazole-5-carboxamide]"
11,4 nM,"O=C(Nc1ccc2[nH]c(=O)[nH]c2c1)N1CCc2ccccc21 [Example 105, N-(2-Oxo-2,3-dihydro-1H-benzo[d]imidazol-5-yl)indoline-1-carboxamide]"
12,1 nM,"CNS(=O)(=O)c1ccc(CC(=O)Nc2ccc3[nH]c(=O)[nH]c3c2)cc1 [Example 106, 2-(4-(N-Methylsulfamoyl)phenyl)-N-(2-oxo-2,3-dihydro-1H-benzo[d]imidazol-5-yl)acetamide]"
